Test results reported in ChEMBL document CHEMBL1201862, “PubChem BioAssay data set” (2004).
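Five compound concentrations were applied to cells in 96-well plates for 48 hours; endpoints were derived by simple linear interpolation of the resulting dose-response curve. At the GI50, growth is halved.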 Active and inactive are the calls of the source. No stated cut-off is given here; in the data, active = GI50 up to about 1.1 µM and inactive = higher.

What was measured:
Test in all cases: inhibition of tumour cell growth, NCI panel, 48 h
[1] = system: SF-268
[2] = system: OVCAR-5
[3] = system: SK-MEL-5
[4] = system: CAKI-1
[5] = system: SK-OV-3
[6] = system: TK-10
[7] = system: Malme-3M
[8] = system: OVCAR-8
[9] = system: NCI/ADR-RES
[10] = system: SR
[11] = system: SK-MEL-28
[12] = system: UO-31
[13] = system: PC-3
[14] = system: DU-145
[15] = system: U-251
[16] = system: HCT-116
[17] = system: SF-539
[18] = system: HCT-15
[19] = system: OVCAR-4
[20] = system: NCI-H23
[21] = system: EKVX
[22] = system: ACHN
[23] = system: SF-295
[24] = system: SK-MEL-2
[25] = system: HCC 2998
[26] = system: T47D
[27] = system: SW-620
[28] = system: OVCAR-3
[29] = system: SNB-75
[30] = system: KM12
[31] = system: HOP-92
[32] = system: COLO 205
[33] = system: UACC-62
[34] = system: MCF7
[35] = system: HL-60
[36] = system: NCI-H522
[37] = system: HOP-62
[38] = system: HT-29
[39] = system: UACC-257
[40] = system: IGROV-1
[41] = system: SN12C
[42] = system: MOLT-4
[43] = system: MDA-MB-435
[44] = system: A549
[45] = system: MDA-MB-231
[46] = system: NCI-H460
[47] = system: SNB-19
[48] = system: RXF 393
[49] = system: K562
[50] = system: M14
[51] = system: NCI-H226
[52] = system: RPMI-8226
[53] = system: 786-0
[54] = system: MDA-N
[55] = system: LOX IMVI
[56] = system: CCRF-CEM
[57] = system: A498

Nc1ccc(C(=O)NN2C(=O)[C@H](Cl)C2c2ccc(Cl)cc2)cc1 (some centres not stated)
GI50 [1]: 1060 nM (active)
GI50 [2]: 4200 nM (inactive)
GI50 [3]: 1930 nM (inactive)
GI50 [4]: 1400 nM (inactive)
GI50 [5]: 1880 nM (inactive)
GI50 [6]: 838 nM (active)
GI50 [7]: 2210 nM (inactive)
GI50 [8]: 1760 nM (inactive)
GI50 [9]: 1650 nM (inactive)
GI50 [10]: 324 nM (active)
GI50 [11]: 265 nM (active)
GI50 [12]: 2070 nM (inactive)
GI50 [13]: 1600 nM (inactive)
GI50 [14]: 1560 nM (inactive)
GI50 [15]: 1220 nM (inactive)
GI50 [16]: 434 nM (active)
GI50 [17]: 1790 nM (inactive)
GI50 [18]: 646 nM
GI50 [19]: 615 nM (active)
GI50 [20]: 869 nM (active)
GI50 [21]: 3550 nM (inactive)
GI50 [22]: 789 nM (active)
GI50 [23]: 4550 nM (inactive)
GI50 [24]: 1890 nM (inactive)
GI50 [25]: 1650 nM (inactive)
GI50 [26]: 1850 nM (inactive)
GI50 [27]: 2110 nM (inactive)
GI50 [28]: 570 nM (active)
GI50 [29]: 223 nM (active)
GI50 [30]: 1500 nM (inactive)
GI50 [31]: 1870 nM (inactive)
GI50 [32]: 1930 nM (inactive)
GI50 [33]: 1680 nM (inactive)
GI50 [34]: 1170 nM (inactive)
GI50 [35]: 1910 nM (inactive)
GI50 [36]: 2030 nM (inactive)
GI50 [37]: 1770 nM (inactive)
GI50 [38]: 156 nM (active)
GI50 [39]: 1740 nM (inactive)
GI50 [40]: 1650 nM (inactive)
GI50 [41]: 1040 nM (active)
GI50 [42]: 1090 nM (active)
GI50 [43]: 1840 nM (inactive)
GI50 [44]: 2450 nM (inactive)
GI50 [45]: 1810 nM (inactive)
GI50 [46]: 2080 nM (inactive)
GI50 [47]: 1670 nM (inactive)
GI50 [48]: 2720 nM (inactive)
GI50 [49]: 1820 nM (inactive)
GI50 [50]: 1580 nM (inactive)
GI50 [51]: 714 nM (active)
GI50 [52]: 1210 nM (inactive)
GI50 [53]: 1320 nM (inactive)

CO[C@@H]1/C=C\C=C(/C)C(=O)NC2=CC(=O)C(NCCN(C)C)=C(C[C@@H](C)C[C@@H](OC)[C@@H](O)[C@H](C)/C=C(\C)[C@H]1OC(N)=O)C2=O
GI50 [54]: < 10 nM (active)
GI50 [5]: 12.1 nM (active)
GI50 [7]: < 10 nM (active)
GI50 [8]: < 19.1 nM (active)
GI50 [12]: 652 nM (active)
GI50 [15]: < 10 nM (active)
GI50 [16]: < 13.2 nM (active)
GI50 [18]: 345 nM
GI50 [19]: 841 nM (active)
GI50 [55]: < 10 nM (active)
GI50 [25]: < 11.8 nM (active)
GI50 [56]: < 14.4 nM (active)
GI50 [30]: < 10 nM (active)
GI50 [32]: < 10 nM (active)
GI50 [33]: < 10 nM (active)
GI50 [39]: 12.1 nM (active)
GI50 [40]: < 10 nM (active)
GI50 [41]: < 10 nM (active)
GI50 [42]: 16.6 nM (active)
GI50 [43]: < 10 nM (active)
GI50 [44]: < 11.7 nM (active)
GI50 [46]: < 10 nM (active)
GI50 [47]: < 23.6 nM (active)
GI50 [50]: < 10 nM (active)
GI50 [52]: 121 nM (active)
GI50 [53]: < 20.4 nM (active)

COC(C)(C)C1(O)CC[C@@H](C)CC1=O (some centres not stated)
GI50 [1]: > 100000 nM (inactive)
GI50 [2]: > 100000 nM (inactive)
GI50 [6]: > 100000 nM (inactive)
GI50 [7]: > 100000 nM (inactive)
GI50 [11]: > 100000 nM (inactive)
GI50 [14]: > 100000 nM (inactive)
GI50 [16]: > 100000 nM (inactive)
GI50 [17]: > 100000 nM (inactive)
GI50 [18]: > 100000 nM
GI50 [19]: > 100000 nM (inactive)
GI50 [20]: > 100000 nM (inactive)
GI50 [21]: > 100000 nM (inactive)
GI50 [22]: > 100000 nM (inactive)
GI50 [23]: > 100000 nM (inactive)
GI50 [27]: > 100000 nM (inactive)
GI50 [29]: > 100000 nM (inactive)
GI50 [57]: > 100000 nM (inactive)
GI50 [30]: > 100000 nM (inactive)
GI50 [33]: > 100000 nM (inactive)
GI50 [34]: > 100000 nM (inactive)
GI50 [36]: > 100000 nM (inactive)
GI50 [37]: > 100000 nM (inactive)
GI50 [39]: > 100000 nM (inactive)
GI50 [41]: > 100000 nM (inactive)
GI50 [43]: > 100000 nM (inactive)
GI50 [44]: > 100000 nM (inactive)
GI50 [50]: > 100000 nM (inactive)
GI50 [52]: > 100000 nM (inactive)
